Experimental data published in US7622269B2, “Methods of screening tyramine- and octopamine-expressing cells for compounds and compositions having potential insect control activity” (Tyratech, Inc., priority 2004, dated 2009).
Several values for one entry are separate records, joined by “and”; a condition that tells them apart may be missing. Equal entries are not always repeated.

How the values were obtained:
[1] = tested on: Drosophila melanogaster wild type strain; test: Topical toxicity bioassay, wild type fruit fly; type: in vivo
Pa oa1 [2] = molecular target: T1, Pa oa1 (Periplaneta americana, UniProt Q7YWB7); test: Saturation binding of 3H-yohimbine to membranes of COS-7 cells expressing Pa oa1
T1 sequence (Q7YWB7 entry or part of it): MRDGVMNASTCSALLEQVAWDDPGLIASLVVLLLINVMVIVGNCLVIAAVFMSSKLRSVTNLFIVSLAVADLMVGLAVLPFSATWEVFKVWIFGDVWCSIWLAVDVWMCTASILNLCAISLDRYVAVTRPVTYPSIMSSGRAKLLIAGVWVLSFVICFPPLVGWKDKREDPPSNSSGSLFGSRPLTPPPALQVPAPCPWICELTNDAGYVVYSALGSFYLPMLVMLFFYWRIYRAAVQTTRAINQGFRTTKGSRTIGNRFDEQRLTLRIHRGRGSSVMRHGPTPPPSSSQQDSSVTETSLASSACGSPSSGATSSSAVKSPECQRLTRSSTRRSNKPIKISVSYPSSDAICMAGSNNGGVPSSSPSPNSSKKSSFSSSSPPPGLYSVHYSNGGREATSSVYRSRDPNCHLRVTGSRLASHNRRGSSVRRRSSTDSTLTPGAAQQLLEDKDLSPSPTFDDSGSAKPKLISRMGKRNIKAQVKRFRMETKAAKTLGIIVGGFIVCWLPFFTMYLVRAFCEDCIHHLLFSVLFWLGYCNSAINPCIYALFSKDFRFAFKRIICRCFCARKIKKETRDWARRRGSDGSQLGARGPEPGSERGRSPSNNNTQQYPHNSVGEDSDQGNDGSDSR

OAMB = OAMB (Drosophila melanogaster, UniProt Q7JQF1, L268I/L487I/L521I/T180I); test: Saturation binding of 3H-yohimbine to membranes of COS-7 cells expressing OAMB; set-up: Oligonucleotides designed to amplify the open reading frame of Drosophila melanogaster OAMB; expressed in transfected cells
OAMB, sequence (Q7JQF1 other isoform, or with tags, fused parts or gaps T180I/L268I/L487I/L524I): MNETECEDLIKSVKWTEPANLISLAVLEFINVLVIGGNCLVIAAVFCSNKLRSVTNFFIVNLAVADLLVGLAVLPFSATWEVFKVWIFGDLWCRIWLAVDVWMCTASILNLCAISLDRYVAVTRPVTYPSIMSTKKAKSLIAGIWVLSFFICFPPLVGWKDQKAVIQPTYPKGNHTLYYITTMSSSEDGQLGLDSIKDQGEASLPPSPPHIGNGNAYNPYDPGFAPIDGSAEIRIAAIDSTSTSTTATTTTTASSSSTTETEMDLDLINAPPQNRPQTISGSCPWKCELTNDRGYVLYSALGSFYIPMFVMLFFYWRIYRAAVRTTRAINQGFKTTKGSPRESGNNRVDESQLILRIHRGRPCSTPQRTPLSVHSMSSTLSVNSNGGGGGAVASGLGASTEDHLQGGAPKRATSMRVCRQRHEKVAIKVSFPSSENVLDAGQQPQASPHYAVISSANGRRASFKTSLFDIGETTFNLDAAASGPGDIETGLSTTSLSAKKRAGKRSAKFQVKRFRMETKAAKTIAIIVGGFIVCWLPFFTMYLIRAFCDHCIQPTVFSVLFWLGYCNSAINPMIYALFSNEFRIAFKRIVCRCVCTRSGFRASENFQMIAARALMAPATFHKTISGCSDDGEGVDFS

Pa oa1 [3] = molecular target: T1, Pa oa1; test: cAMP levels in HEK-293 cells expressing Pa oa1; type: cell-based; details: about 20 μM BAPTA/AM; basal, about 100 nM or about 1 μM octopamine
Procedure: Twenty-four hours before cell treatment, about 300,000 HEK-293 cells are plated in about 1 ml media with about 0.8 mg G418/ml into multi-well dishes (e.g., 12-well, 4.5 cm^2). For cell treatment, the media is aspirated and about 1 ml PBS with about 300 μM IBMX and the test reagent is added. […] Cells are incubated with about 70% ethanol for about 1 h at about −20° C. The cellular debris is centrifuged and then the supernatant is removed and lyophilized to dryness. The amount of cAMP in the extract is determined by using a cAMP binding protein from the ^3H-cAMP Biotrak assay system (Amersham Biosciences) as per the manufacturer's instructions. To test the effects of calcium chelation on cAMP levels, the cells are incubated with about […] BAPTA/AM (Calbiochem Biochemicals, La Jolla, Calif.) for about 10 min before the addition of the test reagents.
To determine cAMP levels in cells, about 24-hours before cell treatment, 300,000 HEK-293 cells are plated in 1 mL media with 0.8 mg G418/mL into multi-dishes (4.5 cm2). For cell treatment, the media is aspirated and 1 mL PBS with 300 μM IBMX and the test reagent is added. Cells are incubated at 37° C. for 20 min, and the PBS is then aspirated. Cells are incubated with 70% ethanol for 1 hour at −20° C. The cellular debris is centrifuged and then the supernatant is removed and lyophilized to dryness. The amount of cAMP in the extract is determined by using a cAMP binding protein from the ^3H-cAMP Biotrak assay system (Amersham Biosciences, Piscataway, N.J.) as per the manufacturer's instructions.

Pa oa1 [4] = molecular target: T1, Pa oa1; test: Intracellular calcium (Fura-2) in HEK-293 cells expressing Pa oa1; type: cell-based; details: about 20 μM BAPTA/AM
Pa oa1 [5] = molecular target: T1, Pa oa1; test: Competitive binding against 3H-yohimbine, Pa oa1 membranes; details: Ki, about 2 nM 3H-yohimbine
[6] = 3H-yohimbine 0.5 to 50 nM, 50 μM phentolamine for nonspecific binding

**Q.** With `CCC(=O)OCCc1ccccc1` [2-phenylethyl propionate] as the compound, how does the “Wild/type LD50 values” ([1]; topical application, mortality 24 hours after treatment) read?
**A.** Its value is 14.50 μg/fly.

**Q.** And the “% Mortality at LD50 of wild/type Drosophila melanogaster strain, Wild/type” value ([1]; topical, 24 hour)?
**A.** Its value is 53.3%.

**Q.** With `COC(=O)[C@@H]1[C@H]2C[C@H]3c4[nH]c5ccccc5c4CCN3C[C@@H]2CC[C@@H]1O` [3H-yohimbine] as the compound, how does the Kd (Pa oa1 [2]; [6]) read?
**A.** Its Kd is ~28.4 nM and 28.4 nM.

**Q.** And the “Bmax for specific binding” value (Pa oa1 [2]; COS-7 membranes)?
**A.** Its value is “about 11.8 pmol/mg protein”.

**Q.** What about the “affinity of Pa oa1 to the radioligand higher than OAMB” value (Pa oa1 [2]; Pa oa1 vs OAMB) of the same compound?
**A.** Its value is “about 1.5 fold”.

**Q.** What about the Bmax (Pa oa1 [2]; Table B) of the same compound?
**A.** Its Bmax is 11.80 pmole receptor/mg protein.

**Q.** And the Kd (OAMB; [6])?
**A.** The Kd was ~43 nM and 43 nM.

**Q.** What about the Bmax (OAMB; COS-7 membranes) of the same compound?
**A.** Its Bmax is “about 8.04 pmol/mg”.

**Q.** And the Bmax (OAMB; Table B)?
**A.** Its Bmax is 8.04 pmole receptor/mg protein.

**Q.** `CC(=O)OCOC(=O)CN(CC(=O)OCOC(C)=O)c1ccccc1OCCOc1ccccc1N(CC(=O)OCOC(C)=O)CC(=O)OCOC(C)=O` [BAPTA/AM] was tested. Which “cAMP levels in absence vs presence of BAPTA/AM” value (Pa oa1 [3]) did it give?
**A.** Its value is “not found to be statistically different”.

**Q.** What about the “effect on increase in free intracellular calcium by about 1 μM octopamine” value (Pa oa1 [4]) of the same compound?
**A.** The value was “inhibit the increase in free intracellular calcium”.

**Q.** How did the Ki (Pa oa1 [5]) turn out when `CN(C)CCCN1c2ccccc2Sc2ccc(Cl)cc21` [Chlorpromazine] was run?
**A.** Its Ki is 12 ± 3 nM.

**Q.** How did the Ki (Pa oa1 [5]) turn out when `NCCc1ccc(O)c(O)c1` [Dopamine] was run?
**A.** The Ki was 56600 ± 8000 nM.

**Q.** With `CCN(CC)CCNC(=O)c1cc(Cl)c(N)cc1OC` [Metoclopramine] as the compound, how does the Ki (Pa oa1 [5]) read?
**A.** The Ki was 4760 ± 1320 nM.

**Q.** How did the Ki (Pa oa1 [5]) turn out when `Cc1ccc(N(CC2=NCCN2)c2cccc(O)c2)cc1` [Phentolamine] was run?
**A.** The Ki was 23 ± 9 nM.
